# Data from US20130212744A1, “METHOD OF REDUCING INSECT-VECTORED VIRAL INFECTIONS” (priority 2010, published 2013).
# Where two headings read alike, the source gives them in different places.
# Assays:
# Assay type in all cases: in vivo
# [1] = tested on: whitefly Bemisia tabaci adults; experiment: Soil use (drench) field trial on tomato, efficacy on whitefly adults; settings: for Emax at 12.5 g/ha: 12.5 g ai/ha; for Emax at 25 g/ha: 25 g ai/ha
# Description: Two soil applied studies were carried out in Elhasanya, Egypt in 2009 on tomato plants with the main goal to measure efficacy on the whitefly Bemisia tabaci. The plot size was 4.8 m^2 and 6 replicates were used in the trial. Products were applied once on young tomato plants at BBCH stage 14 as a drench. The spray volume was at the first application 350 l/ha. The evaluation of this study was done counting the adult whiteflies (Bemisia tabaci) as well as the nymphs and the eggs in each plot. In addition to the direct whitefly effect, visual symptoms of the virus, mainly TYLCV (tomato yellow leaf curl virus) were evaluated also.
# [2] = tested on: whitefly Bemisia tabaci adults; experiment: Foliar use field trial on tomato, efficacy on whitefly adults; settings: Bemisia tabaci, foliar
# Description: (§1) Two studies were carried out in Elhasanya, Egypt in 2009 on tomato plants of the variety Fayrouz with the main goal to measure efficacy on the whitefly Bemisia tabaci. The plot size was 4.8 m^2 and 6 replicates were used in the trial. Products were applied 3 times on young tomato plants at BBCH stages 14, 17 and 51 at spray intervals between 12 and 19 days. The spray volume was at the first application 350 l/ha and later 500 l/ha. The evaluation of this study was done counting the adult whiteflies (Bemisia tabaci) as well as the nymphs and the eggs in each plot. In addition to the direct whitefly effect, visual symptoms of the virus, mainly TYLCV (tomato yellow leaf curl virus) were evaluated also.
# (§2) ASM=Acibenzolar-S-methyl. WG 50=Actigard® 50WG, a water-dispersible granule with the active ingredient ASM CYNT=Cyantraniliprole. WG 40=Cyazypyr®, a water dispersable granule with the active ingredient CYNT. Results on whitefly adults. Trial 1
# [3] = tested on: whitefly Bemisia tabaci nymphs; experiment: Soil use (drench) field trial on tomato, efficacy on whitefly nymphs; settings: for Emax at 12.5 g/ha: 12.5 g ai/ha; for Emax at 25 g/ha: 25 g ai/ha
# Description: Two soil applied studies were carried out in Elhasanya, Egypt in 2009 on tomato plants with the main goal to measure efficacy on the whitefly Bemisia tabaci. The plot size was 4.8 m^2 and 6 replicates were used in the trial. […] The spray volume was at the first application 350 l/ha. The evaluation of this study was done counting the adult whiteflies (Bemisia tabaci) as well as the nymphs and the eggs in each plot. In addition to the direct whitefly effect, visual symptoms of the virus, mainly TYLCV (tomato yellow leaf curl virus) were evaluated also.
# [4] = tested on: whitefly Bemisia tabaci nymphs; experiment: Foliar use field trial on tomato, efficacy on whitefly nymphs; settings: Bemisia tabaci, foliar
# Description: as §1, §2
compound,measurement,setting,value
"CSC(=O)c1cccc2nnsc12 [ASM, S-methyl benzo[1,2,3]thiadiazole-7-carbothioate]",Emax at 12.5 g/ha,"[1]; 120 h, 5DAA, Trial 1",40%
same,Emax at 12.5 g/ha,"[1]; 120 h, 5DAA, Trial 2",29%
same,Emax at 25 g/ha,"[1]; 120 h, 5DAA, Trial 1",50%
same,Emax at 25 g/ha,"[1]; 120 h, 5DAA, Trial 2",36%
same,Emax at 12.5 g/ha,"[1]; 240 h, 10DAA, Trial 1",41%
same,Emax at 12.5 g/ha,"[1]; 240 h, 10DAA, Trial 2",34%
same,Emax at 25 g/ha,"[1]; 240 h, 10DAA, Trial 1",44%
same,Emax at 25 g/ha,"[1]; 240 h, 10DAA, Trial 2",45%
same,Emax at 12.5 g/ha,"[1]; 360 h, 15DAA, Trial 1",58%
same,Emax at 12.5 g/ha,"[1]; 360 h, 15DAA, Trial 2",35%
same,Emax at 25 g/ha,"[1]; 360 h, 15DAA, Trial 1",64%
same,Emax at 25 g/ha,"[1]; 360 h, 15DAA, Trial 2",45%
same,Emax at 12.5 g/ha,"[1]; 480 h, 20DAA, Trial 1",39%
same,Emax at 12.5 g/ha,"[1]; 480 h, 20DAA, Trial 2",31%
same,Emax at 25 g/ha,"[1]; 480 h, 20DAA, Trial 1",42%
same,Emax at 25 g/ha,"[1]; 480 h, 20DAA, Trial 2",43%
same,Emax at 12.5 g/ha,"[1]; 600 h, 25DAA, Trial 1",29%
same,Emax at 12.5 g/ha,"[1]; 600 h, 25DAA, Trial 2",25%
same,Emax at 25 g/ha,"[1]; 600 h, 25DAA, Trial 1",31%
same,Emax at 25 g/ha,"[1]; 600 h, 25DAA, Trial 2",35%
same,Emax at 12.5 g/ha,"[1]; 720 h, 30DAA, Trial 1",22%
same,Emax at 12.5 g/ha,"[1]; 720 h, 30DAA, Trial 2",19%
same,Emax at 25 g/ha,"[1]; 720 h, 30DAA, Trial 1",26%
same,Emax at 25 g/ha,"[1]; 720 h, 30DAA, Trial 2",30%
same,Emax at 12.5 g/ha,"[1]; 840 h, 35DAA, Trial 1",14%
same,Emax at 12.5 g/ha,"[1]; 840 h, 35DAA, Trial 2",12%
same,Emax at 25 g/ha,"[1]; 840 h, 35DAA, Trial 1",26%
same,Emax at 25 g/ha,"[1]; 840 h, 35DAA, Trial 2",23%
same,Emax at 12.5 g/ha,"[1]; 960 h, 40DAA, Trial 1",5%
same,Emax at 12.5 g/ha,"[1]; 960 h, 40DAA, Trial 2",9%
same,Emax at 25 g/ha,"[1]; 960 h, 40DAA, Trial 1",5%
same,Emax at 25 g/ha,"[1]; 960 h, 40DAA, Trial 2",10%
same,Emax,"[2]; 12.5 g ai/hl, 5DAA1, Trial 1, read-out: % Efficacy on Adults",53%
same,Emax,"[2]; 12.5 g ai/hl, 5DAA1, Trial 2, read-out: % Efficacy on Adults",53%
same,Emax,"[2]; 12.5 g ai/hl, 5DAA2, Trial 1, read-out: % Efficacy on Adults",45%
same,Emax,"[2]; 12.5 g ai/hl, 5DAA2, Trial 2, read-out: % Efficacy on Adults",45%
same,Emax,"[2]; 12.5 g ai/hl, 5DAA3, Trial 1, read-out: % Efficacy on Adults",55%
same,Emax,"[2]; 12.5 g ai/hl, 5DAA3, Trial 2, read-out: % Efficacy on Adults",55%
same,Emax,"[2]; 12.5 g ai/hl, 10DAA1, Trial 1, read-out: % Efficacy on Adults",43%
same,Emax,"[2]; 12.5 g ai/hl, 10DAA1, Trial 2, read-out: % Efficacy on Adults",43%
same,Emax,"[2]; 12.5 g ai/hl, 10DAA2, Trial 1, read-out: % Efficacy on Adults",37%
same,Emax,"[2]; 12.5 g ai/hl, 10DAA2, Trial 2, read-out: % Efficacy on Adults",37%
same,Emax,"[2]; 12.5 g ai/hl, 10DAA3, Trial 1, read-out: % Efficacy on Adults",46%
same,Emax,"[2]; 12.5 g ai/hl, 10DAA3, Trial 2, read-out: % Efficacy on Adults",46%
same,Emax,"[2]; 12.5 g ai/hl, 15DAA3, Trial 1, read-out: % Efficacy on Adults",38%
same,Emax,"[2]; 12.5 g ai/hl, 15DAA3, Trial 2, read-out: % Efficacy on Adults",38%
same,Emax,"[2]; 12.5 g ai/hl, 20DAA3, Trial 1, read-out: % Efficacy on Adults",12%
same,Emax,"[2]; 12.5 g ai/hl, 20DAA3, Trial 2, read-out: % Efficacy on Adults",12%
same,Emax,"[2]; 12.5 g ai/hl, Avg, Trial 1, read-out: % Efficacy on Adults Avg % C",41%
same,Emax,"[2]; 25 g ai/hl, 5DAA1, Trial 1, read-out: % Efficacy on Adults",59%
same,Emax,"[2]; 25 g ai/hl, 5DAA1, Trial 2, read-out: % Efficacy on Adults",59%
same,Emax,"[2]; 25 g ai/hl, 5DAA2, Trial 1, read-out: % Efficacy on Adults",52%
same,Emax,"[2]; 25 g ai/hl, 5DAA2, Trial 2, read-out: % Efficacy on Adults",52%
same,Emax,"[2]; 25 g ai/hl, 5DAA3, Trial 1, read-out: % Efficacy on Adults",57%
same,Emax,"[2]; 25 g ai/hl, 5DAA3, Trial 2, read-out: % Efficacy on Adults",57%
same,Emax,"[2]; 25 g ai/hl, 10DAA1, Trial 1, read-out: % Efficacy on Adults",43%
same,Emax,"[2]; 25 g ai/hl, 10DAA1, Trial 2, read-out: % Efficacy on Adults",43%
same,Emax,"[2]; 25 g ai/hl, 10DAA2, Trial 1, read-out: % Efficacy on Adults",39%
same,Emax,"[2]; 25 g ai/hl, 10DAA2, Trial 2, read-out: % Efficacy on Adults",39%
same,Emax,"[2]; 25 g ai/hl, 10DAA3, Trial 1, read-out: % Efficacy on Adults",49%
same,Emax,"[2]; 25 g ai/hl, 10DAA3, Trial 2, read-out: % Efficacy on Adults",49%
same,Emax,"[2]; 25 g ai/hl, 15DAA3, Trial 1, read-out: % Efficacy on Adults",40%
same,Emax,"[2]; 25 g ai/hl, 15DAA3, Trial 2, read-out: % Efficacy on Adults",40%
same,Emax,"[2]; 25 g ai/hl, 20DAA3, Trial 1, read-out: % Efficacy on Adults",22%
same,Emax,"[2]; 25 g ai/hl, 20DAA3, Trial 2, read-out: % Efficacy on Adults",22%
same,Emax,"[2]; 25 g ai/hl, Avg, Trial 1, read-out: % Efficacy on Adults Avg % C",45%
same,Emax at 12.5 g/ha,"[3]; 25DAA1, Trial 2",29%
same,Emax at 12.5 g/ha,"[3]; 30DAA1, Trial 2",39%
same,Emax at 12.5 g/ha,"[3]; 35DAA1, Trial 2",22%
same,Emax at 12.5 g/ha,"[3]; 40DAA2, Trial 2",11%
same,Emax at 25 g/ha,"[3]; 25DAA1, Trial 2",69%
same,Emax at 25 g/ha,"[3]; 30DAA1, Trial 2",43%
same,Emax at 25 g/ha,"[3]; 35DAA1, Trial 2",14%
same,Emax at 25 g/ha,"[3]; 40DAA2, Trial 2",6%
same,Emax at 12.5 g/ha,"[3]; 240 h, 10DAA, Trial 1",47%
same,Emax at 25 g/ha,"[3]; 240 h, 10DAA, Trial 1",50%
same,Emax at 12.5 g/ha,"[3]; 360 h, 15DAA, Trial 1",21%
same,Emax at 25 g/ha,"[3]; 360 h, 15DAA, Trial 1",47%
same,Emax at 12.5 g/ha,"[3]; 480 h, 20DAA, Trial 1",31%
same,Emax at 25 g/ha,"[3]; 480 h, 20DAA, Trial 1",54%
same,Emax at 12.5 g/ha,"[3]; 600 h, 25DAA, Trial 1",60%
same,Emax at 25 g/ha,"[3]; 600 h, 25DAA, Trial 1",50%
same,Emax at 12.5 g/ha,"[3]; 720 h, 30DAA, Trial 1",47%
same,Emax at 25 g/ha,"[3]; 720 h, 30DAA, Trial 1",49%
same,Emax at 12.5 g/ha,"[3]; 840 h, 35DAA, Trial 1",41%
same,Emax at 25 g/ha,"[3]; 840 h, 35DAA, Trial 1",44%
same,Emax at 12.5 g/ha,"[3]; 960 h, 40DAA, Trial 1",28%
same,Emax at 25 g/ha,"[3]; 960 h, 40DAA, Trial 1",33%
same,Emax,"[4]; 12.5 g ai/hl, 5DAA2, Trial 1, read-out: % Efficacy on Nymphs",5%
same,Emax,"[4]; 12.5 g ai/hl, 5DAA2, Trial 2, read-out: % Efficacy on Nymphs",5%
same,Emax,"[4]; 12.5 g ai/hl, 5DAA3, Trial 1, read-out: % Efficacy on Nymphs",62%
same,Emax,"[4]; 12.5 g ai/hl, 5DAA3, Trial 2, read-out: % Efficacy on Nymphs",62%
same,Emax,"[4]; 12.5 g ai/hl, 10DAA2, Trial 1, read-out: % Efficacy on Nymphs",52%
same,Emax,"[4]; 12.5 g ai/hl, 10DAA2, Trial 2, read-out: % Efficacy on Nymphs",52%
same,Emax,"[4]; 12.5 g ai/hl, 10DAA3, Trial 1, read-out: % Efficacy on Nymphs",46%
same,Emax,"[4]; 12.5 g ai/hl, 10DAA3, Trial 2, read-out: % Efficacy on Nymphs",46%
same,Emax,"[4]; 12.5 g ai/hl, 15DAA3, Trial 1, read-out: % Efficacy on Nymphs",42%
same,Emax,"[4]; 12.5 g ai/hl, 15DAA3, Trial 2, read-out: % Efficacy on Nymphs",42%
same,Emax,"[4]; 12.5 g ai/hl, 20DAA3, Trial 1, read-out: % Efficacy on Nymphs",27%
same,Emax,"[4]; 12.5 g ai/hl, 20DAA3, Trial 2, read-out: % Efficacy on Nymphs",27%
same,Emax,"[4]; 12.5 g ai/hl, Avg, Trial 1, read-out: % Efficacy on Nymphs Avg % C",39%
same,Emax,"[4]; 25 g ai/hl, 5DAA2, Trial 1, read-out: % Efficacy on Nymphs",57%
same,Emax,"[4]; 25 g ai/hl, 5DAA2, Trial 2, read-out: % Efficacy on Nymphs",57%
same,Emax,"[4]; 25 g ai/hl, 5DAA3, Trial 1, read-out: % Efficacy on Nymphs",66%
same,Emax,"[4]; 25 g ai/hl, 5DAA3, Trial 2, read-out: % Efficacy on Nymphs",66%
same,Emax,"[4]; 25 g ai/hl, 10DAA2, Trial 1, read-out: % Efficacy on Nymphs",65%
same,Emax,"[4]; 25 g ai/hl, 10DAA2, Trial 2, read-out: % Efficacy on Nymphs",65%
same,Emax,"[4]; 25 g ai/hl, 10DAA3, Trial 1, read-out: % Efficacy on Nymphs",53%
same,Emax,"[4]; 25 g ai/hl, 10DAA3, Trial 2, read-out: % Efficacy on Nymphs",53%
same,Emax,"[4]; 25 g ai/hl, 15DAA3, Trial 1, read-out: % Efficacy on Nymphs",55%
same,Emax,"[4]; 25 g ai/hl, 15DAA3, Trial 2, read-out: % Efficacy on Nymphs",55%
same,Emax,"[4]; 25 g ai/hl, 20DAA3, Trial 1, read-out: % Efficacy on Nymphs",39%
same,Emax,"[4]; 25 g ai/hl, 20DAA3, Trial 2, read-out: % Efficacy on Nymphs",39%
same,Emax,"[4]; 25 g ai/hl, Avg, Trial 1, read-out: % Efficacy on Nymphs Avg % C",56%
